Key:
[1] = Dynamic surface tension, bubble pressure method (BP2100 tensiometer, Krüss); assay type: physicochemical; conditions: for Dynamic surface tension [mN/m] 20 ms: surface age 20 ms; for Dynamic surface tension [mN/m] 50 ms: surface age 50 ms; for Dynamic surface tension [mN/m] 100 ms: surface age 100 ms; for Dynamic surface tension [mN/m] 200 ms: surface age 200 ms
Protocol: Dynamic surface tension was determined via the bubble pressure method (BP2100 tensiometer, Krüss). Given a timespan of relevance for the spray application of agrochemicals in aqueous dilution (called the surface age in the bubble pressure method) of 200 milliseconds (ms), the value for dynamic surface tension in [mN/m] correlates with the adhesion on plants that are difficult to wet, such as barley (cereal). A value of 50 mN/m (at 20-21° C.) with respect to water (72.8 mN/m) results in an improvement in the adhesion from “zero adhesion” (0%) to about 50% (Baur P., Pontzen R.; 2007; Basic features of plant surface wettability and deposit formation and the impact of adjuvant; in R. E. Gaskin ed. Proceedings of the 8th International Symposium on Adjuvants for Agrochemicals; Publisher: International Society for Agrochemical Adjuvants (ISAA), Columbus, Ohio, USA).

[2] = Droplet size distribution of spray (Malvern Spraytec, ID(3)12002 injector nozzle, 3 bar); assay type: physicochemical; conditions: summary of Table 4, no tankmix partner
Excerpt: A Malvern Spraytec “real-time spray sizing system” was used to determine the droplet size distribution. For this purpose, the system (STP5311, Malvern Instruments GmbH, Heidelberg, Germany) was installed in a specially constructed spray cabin, with the option of being able to model real spray applications as carried out in practice with freely adjustable pressure for various hydraulic nozzles and freely adjustable distances (nozzle-target surface). The spray cabin can be darkened and all disruptive parameters can be eliminated. For the measurements, the ID(3)12002 (Lechler) injector nozzles were used. The pressure set was varied, and mean pressure was kept constant at 3 bar for the measurements reported hereinafter. The temperature and relative air humidity varied between 21.5° C. and 29° C. and between 33% and 56% respectively. In each test series, tap water was measured as internal standard. […]
As a further measurement parameter, the proportion by volume of the droplets having diameter <210 μm (“Vol 210”) was determined and expressed in relation to the proportion by volume of droplets having diameter <105 μm (“Vol 210 / Vol 105”). In addition, the percentage reduction in the proportion by volume of droplets having diameter <105 μm in the case of use of spray liquids containing the test substances was calculated in comparison to the use of tap water as internal standard (“Red 105”).

apple leaf cuticles = test: Membrane penetration test of metribuzin through isolated apple leaf cuticles; assay type: in vitro ADME; conditions: Sencor 600 SC, metribuzin 2.25 g/L, 10° C./56% rel. air humidity
Protocol: The potential of the test substances, which is independent of the surfactant action, to promote foliar absorption of active agrochemical ingredients was determined in membrane penetration tests with apple leaf cuticles using the example of metribuzin. […] Efforts are therefore being made to find additives that promote wetting but only slightly increase the uptake of the active ingredient, such that only a minimum portion of the active ingredient is taken up into the leaf. The plant cuticle is a lipophilic solubility membrane (lipid membrane) without pores or holes, and the results described are also expected for other nonporous lipophilic solubility membranes with these or other electrolyte active ingredients. The principle of the method has been published (e.g. WO-A-2005/194844; Baur, 1997; Baur, Grayson and Schönherr 1999; Baur, Bodelon and Lowe, 2012), and only the specifics and differences in the method are elucidated hereinafter. The leaf cuticles were enzymatically isolated in the manner described in the literature from apple leaves of orchard trees in a commercial stone fruit growing facility near Frankfurt am Main in 2016. The stomata-free cuticles were first dried under air and then installed into stainless steel diffusion cells. After application to the original upper side of the leaf and evaporation of the test liquid, i.e. of the aqueous preparations of the active ingredients without or with the glucamide-containing spray liquids or comparative compositions, the diffusion cells were transferred into thermostatted blocks and charged with aqueous liquid. The water used to make up the aqueous test liquids was local tap water (of known composition). At regular intervals, aliquot samples were taken and the proportion of active ingredient penetrated was determined by HPLC. During the experiment, the temperature in the system (block, diffusion cells, liquids, etc.) and the air humidity above the spray deposit on the cuticle were known exactly and were monitored. […] In each case, the geometric mean values of the penetration for intact membranes at the mean measurement times are given. According to the variant (active ingredient×test additive/formulation), 7-8 repetitions were set up. The coefficient of variation was below 35%, which is a typical biological variability for penetration for numerous plants (Baur, 1997).

indicator plants = test: Plant compatibility after application to indicator plants; assay type: in vivo; conditions: concentrations of 0.1, 0.3, 0.8, 1.0, 1.5, 2 and 3 g/L
[3] = Appearance and stability of spray liquids after 24 h; assay type: physicochemical
Protocol: The composition of spray liquids A1-A18 is specified hereinafter. These spray liquids are produced by mixing the various test substances in water, and the appearance and stability of the spray liquid were assessed after 24 h.
The inventive alkenoylglucamides (A1 to A6) are self-emulsifying in the spray liquid and form cloudy homogeneous emulsions that are stable over 24 h. By contrast, spray liquids comprising non-inventive saturated alkylglucamides (A7-A13) of similar chain length are not phase-stable and flocculate.

SMILES	Dynamic surface tension [mN/m] 20 ms ([1]; amount 0.03 % by wt.) [mN/m]	Dynamic surface tension [mN/m] 20 ms ([1]; amount 0.1 % by wt.) [mN/m]	Dynamic surface tension [mN/m] 20 ms ([1]; amount 0.3 % by wt.) [mN/m]	Dynamic surface tension [mN/m] 50 ms ([1]; amount 0.03 % by wt.) [mN/m]	Dynamic surface tension [mN/m] 50 ms ([1]; amount 0.1 % by wt.) [mN/m]	Dynamic surface tension [mN/m] 50 ms ([1]; amount 0.3 % by wt.) [mN/m]	Dynamic surface tension [mN/m] 100 ms ([1]; amount 0.03 % by wt.) [mN/m]	Dynamic surface tension [mN/m] 100 ms ([1]; amount 0.1 % by wt.) [mN/m]	Dynamic surface tension [mN/m] 100 ms ([1]; amount 0.3 % by wt.) [mN/m]	Dynamic surface tension [mN/m] 200 ms ([1]; amount 0.03 % by wt.) [mN/m]	Dynamic surface tension [mN/m] 200 ms ([1]; amount 0.1 % by wt.) [mN/m]	Dynamic surface tension [mN/m] 200 ms ([1]; amount 0.3 % by wt.) [mN/m]	Plant compatibility (necroses or other symptoms such as leaf curl-up or deformation) (indicator plants)	further results
CCC=CCCCCCCCC(=O)N(C)CC(O)C(O)C(O)C(O)CO (stereo not drawn) [Dodec-9-enoyl-N-methylglucamide]	70.0	56.1	44.5	66.1	47.7	38.5	61.9	44.0	36.0	58.6	40.1	33.4	no necroses or other symptoms	Lowering of the dynamic surface tension (in words) ([1]; summary of Table 2): particularly large; Effect on fine droplet content (in words) [2]: distinct reduction in the fine droplet content; Mean penetration for metribuzin after time in % 1 day (apple leaf cuticles; test substance 0.05 % by wt.): 2.9%; Mean penetration for metribuzin after time in % 2 days (apple leaf cuticles; test substance 0.05 % by wt.): 4.6%; Mean penetration for metribuzin after time in % 1 day (apple leaf cuticles; test substance 0.1 % by wt.): 3.9%; Mean penetration for metribuzin after time in % 2 days (apple leaf cuticles; test substance 0.1 % by wt.): 6.5%; Mean penetration for metribuzin after time in % 1 day (apple leaf cuticles; test substance 0.14 % by wt.): 5.7%; Mean penetration for metribuzin after time in % 2 days (apple leaf cuticles; test substance 0.14 % by wt.): 8.6%
CCCCCCCCC(=O)N(C)C[C@H](O)[C@@H](O)[C@H](O)[C@H](O)CO [N-methyl-N-nonanoylglucamine]													no necroses or other symptoms	
C=CCCCCCCCC(=O)N(C)CC(O)C(O)C(O)C(O)CO (stereo not drawn) [dec-9-enoyl-N-methylglucamide]														Water solubility in the spray liquid [3]: completely water-soluble; Appearance ([3]; spray liquid in water, assessed after 24 h): clear transparent spray liquid; Dynamic surface tension [mN/m] 20 ms ([1]; amount 0.06 % by wt.): 70.2 mN/m; Dynamic surface tension [mN/m] 20 ms ([1]; amount 0.125 % by wt.): 66.4 mN/m; Dynamic surface tension [mN/m] 20 ms ([1]; amount 0.25 % by wt.): 59.7 mN/m; Dynamic surface tension [mN/m] 50 ms ([1]; amount 0.06 % by wt.): 68.9 mN/m; Dynamic surface tension [mN/m] 50 ms ([1]; amount 0.125 % by wt.): 63.7 mN/m; Dynamic surface tension [mN/m] 50 ms ([1]; amount 0.25 % by wt.): 56.6 mN/m; Dynamic surface tension [mN/m] 100 ms ([1]; amount 0.06 % by wt.): 67.6 mN/m; Dynamic surface tension [mN/m] 100 ms ([1]; amount 0.125 % by wt.): 61.8 mN/m; Dynamic surface tension [mN/m] 100 ms ([1]; amount 0.25 % by wt.): 55.5 mN/m; Dynamic surface tension [mN/m] 200 ms ([1]; amount 0.06 % by wt.): 67.4 mN/m; Dynamic surface tension [mN/m] 200 ms ([1]; amount 0.125 % by wt.): 61.0 mN/m; Dynamic surface tension [mN/m] 200 ms ([1]; amount 0.25 % by wt.): 54.1 mN/m
CCCCCCCCCCCC(=O)N(C)CC(O)C(O)C(O)C(O)CO (stereo not drawn) [dodecanoyl-N-methylglucamide]	70.6	70.0	67.0	67.3	66.8	61.9	63.0	60.1	58.8	57.9	51.4	48.7		
